US9938322B2, “β-hairpin peptidomimetics” (priority 2013, dated 2018)
Where a SMILES comes first, the peptide text is derived from it. [ ]: non-standard residue; d: D form. Tic(7-OH) = O=C(O)[C@@H]1Cc2ccc(O)cc2CN1; Pro(3S-OH) = O=C(O)[C@H]1NCC[C@@H]1O; Cha = N[C@@H](CC1CCCCC1)C(=O)O; Chg = N[C@H](C(=O)O)C1CCCCC1; Tle = CC(C)(C)[C@H](N)C(=O)O; dDab = NCC[C@@H](N)C(=O)O; Orn = NCCC[C@H](N)C(=O)O; Dab = NCC[C@H](N)C(=O)O; Nva = CCC[C@H](N)C(=O)O; Dap = NC[C@H](N)C(=O)O

System: human red blood cells (hRBC)
Experiment: Hemolysis of human red blood cells
Format: cell-based
Conditions: red cells of human, 1 h, 100
Method in brief: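 Washed fresh human erythrocytes (20% v/v, about 0.9×10^9 cells/ml final) incubated with peptide at 100 μg/ml for 1 h at 37° C with shaking. Supernatant OD540 read; hemolysis expressed relative to 2.5% Triton X-100 (100%) and PBS with 0.001% acetic acid (0%).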

## C[C@@H]1NC(=O)[C@H](CC2CCCCC2)NC(=O)[C@H](CCN)NC(=O)[C@H](Cc2c[nH]c3ccccc23)NC(=O)[C@H](CCN)NC(=O)[C@@H](CCN)NC(=O)[C@H](CCCN)NC(=O)[C@H](CCN)NC(=O)[C@H](C(C)(C)C)NC(=O)[C@H](CO)NC(=O)[C@H](Cc2ccc(O)cc2)NC(=O)[C@@H]2CCCN2C(=O)[C@H]2CCCN2C(=O)[C@H](CO)NC1=O [compound 66] (cyclo(YS[Tle][Dab][Orn][dDab][Dab]W[Dab][Cha]AS[dP]P))
  Hemolysis at 100 μg/ml: 4%

## C[C@@H]1NC(=O)[C@H](CC2CCCCC2)NC(=O)[C@H](CCN)NC(=O)[C@H](Cc2c[nH]c3ccccc23)NC(=O)[C@H](CCN)NC(=O)[C@@H](CCN)NC(=O)[C@H](CCCCN)NC(=O)[C@H](CCN)NC(=O)[C@H](Cc2ccc(O)cc2)NC(=O)[C@H](C)NC(=O)[C@H](Cc2c[nH]c3ccccc23)NC(=O)[C@@H]2CCCN2C(=O)[C@H]2CCCN2C(=O)[C@H](CO)NC1=O [compound 76] (cyclo(WAY[Dab]K[dDab][Dab]W[Dab][Cha]AS[dP]P))
  Hemolysis at 100 μg/ml: 2%

## CC(C)C[C@@H]1NC(=O)[C@@H]2CCCN2C(=O)[C@H]2CCCN2C(=O)[C@H](CO)NC(=O)[C@H](CO)NC(=O)[C@H](C(C)(C)C)NC(=O)[C@H](CCN)NC(=O)[C@H](Cc2c[nH]c3ccccc23)NC(=O)[C@H](CCN)NC(=O)[C@@H](CCN)NC(=O)[C@H](CCCN)NC(=O)[C@H](CCN)NC(=O)[C@H](Cc2ccc(O)cc2)NC(=O)[C@H](CO)NC1=O [compound 117] (cyclo(LSY[Dab][Orn][dDab][Dab]W[Dab][Tle]SS[dP]P))
  Hemolysis at 100 μg/ml: 3%

## CC[C@H](C)[C@@H]1NC(=O)[C@@H]2CCCN2C(=O)[C@H]2CCCN2C(=O)[C@H](CO)NC(=O)[C@H](C)NC(=O)[C@H](C(C)(C)C)NC(=O)[C@H](CCN)NC(=O)[C@H](Cc2c[nH]c3ccccc23)NC(=O)[C@H](CCN)NC(=O)[C@@H](CCN)NC(=O)[C@H](CCCN)NC(=O)[C@H](CCN)NC(=O)[C@H](Cc2ccc(O)cc2)NC(=O)[C@H]([C@@H](C)O)NC1=O [compound 84] (cyclo(ITY[Dab][Orn][dDab][Dab]W[Dab][Tle]AS[dP]P))
  Hemolysis at 100 μg/ml: 0%

## CC[C@H](C)[C@@H]1NC(=O)[C@@H]2CCCN2C(=O)[C@H]2CCCN2C(=O)[C@H](CO)NC(=O)[C@H](C)NC(=O)[C@H](C2CCCCC2)NC(=O)[C@H](CCN)NC(=O)[C@H](Cc2c[nH]c3ccccc23)NC(=O)[C@H](CCN)NC(=O)[C@@H](CCN)NC(=O)[C@H](CCCN)NC(=O)[C@H](CCN)NC(=O)[C@H](C(C)(C)C)NC(=O)[C@H](CO)NC1=O [compound 136] (cyclo(IS[Tle][Dab][Orn][dDab][Dab]W[Dab][Chg]AS[dP]P))
  Hemolysis at 100 μg/ml: 5%

## CC(C)C[C@@H]1NC(=O)[C@@H]2CCCN2C(=O)[C@H]2CCCN2C(=O)[C@H](CO)NC(=O)[C@H](C)NC(=O)[C@H](CC2CCCCC2)NC(=O)[C@H](CCN)NC(=O)[C@H](Cc2c[nH]c3ccccc23)NC(=O)[C@H](CCN)NC(=O)[C@@H](CCN)NC(=O)[C@H](CCCCN)NC(=O)[C@H](CCN)NC(=O)[C@H](Cc2ccc(O)cc2)NC(=O)[C@H](C)NC1=O [compound 128] (cyclo(LAY[Dab]K[dDab][Dab]W[Dab][Cha]AS[dP]P))
  Hemolysis at 100 μg/ml: 2%

## COc1ccc(C[C@@H]2NC(=O)[C@H](CCN)NC(=O)[C@H](Cc3c[nH]c4ccccc34)NC(=O)[C@H](CCN)NC(=O)[C@@H](CCN)NC(=O)[C@H](CCCN)NC(=O)[C@H](CCN)NC(=O)[C@H](Cc3ccc(O)cc3)NC(=O)[C@H](CO)NC(=O)[C@H](CC(C)C)NC(=O)[C@@H]3CCCN3C(=O)[C@H]3CCCN3C(=O)[C@H](CO)NC(=O)[C@H](C)NC2=O)cc1 [compound 32] (cyclo(LSY[Dab][Orn][dDab][Dab]W[Dab]Y(Me)AS[dP]P))
  Hemolysis at 100 μg/ml: 1%

## CC(C)C[C@@H]1NC(=O)[C@@H]2CCCN2C(=O)[C@H]2CCCN2C(=O)[C@H]([C@@H](C)O)NC(=O)[C@H](CO)NC(=O)[C@H](C(C)(C)C)NC(=O)[C@H](CCN)NC(=O)[C@H](Cc2c[nH]c3ccccc23)NC(=O)[C@H](CCN)NC(=O)[C@@H](CCN)NC(=O)[C@H](CCN)NC(=O)[C@H](CCN)NC(=O)[C@H](Cc2ccc(O)cc2)NC(=O)[C@H](CN)NC1=O [compound 149] (cyclo(L[Dap]Y[Dab][Dab][dDab][Dab]W[Dab][Tle]ST[dP]P))
  Hemolysis at 100 μg/ml: 4%

## CCC[C@@H]1NC(=O)[C@@H]2CCCN2C(=O)[C@H]2CCCN2C(=O)[C@H]([C@@H](C)O)NC(=O)[C@H](CO)NC(=O)[C@H](C2CCCCC2)NC(=O)[C@H](CCN)NC(=O)[C@H](Cc2c[nH]c3ccccc23)NC(=O)[C@H](CCN)NC(=O)[C@@H](CCN)NC(=O)[C@H](CCN)NC(=O)[C@H](CCN)NC(=O)[C@H](Cc2ccc(O)cc2)NC(=O)[C@H](C)NC1=O [compound 132] (cyclo([Nva]AY[Dab][Dab][dDab][Dab]W[Dab][Chg]ST[dP]P))
  Hemolysis at 100 μg/ml: 1.5%

## CC(C)C[C@@H]1NC(=O)[C@@H]2[C@@H](O)CCN2C(=O)[C@H]2CCCN2C(=O)[C@H](CO)NC(=O)[C@H](C)NC(=O)[C@H](Cc2ccc(O)cc2)NC(=O)[C@H](CCN)NC(=O)[C@H](Cc2c[nH]c3ccccc23)NC(=O)[C@H](CCN)NC(=O)[C@@H](CCN)NC(=O)[C@H](CCCN)NC(=O)[C@H](CCN)NC(=O)[C@H](Cc2ccc(O)cc2)NC(=O)[C@H](CO)NC1=O [Ex. 55] (cyclo(LSY[Dab][Orn][dDab][Dab]W[Dab]YAS[dP][Pro(3S-OH)]))
  Hemolysis at 100 μg/ml: 1%

## CC(C)C[C@@H]1NC(=O)[C@@H]2CCCN2C(=O)[C@H]2CCCN2C(=O)[C@H](CO)NC(=O)[C@H](C)NC(=O)[C@H](C(C)(C)C)NC(=O)[C@H](CCN)NC(=O)[C@H](Cc2c[nH]c3ccccc23)NC(=O)[C@H](CCN)NC(=O)[C@@H](CCN)NC(=O)[C@H](CCCN)NC(=O)[C@H](CCN)NC(=O)[C@H](Cc2ccc(O)cc2)NC(=O)[C@H](CN)NC1=O [compound 145] (cyclo(L[Dap]Y[Dab][Orn][dDab][Dab]W[Dab][Tle]AS[dP]P))
  Hemolysis at 100 μg/ml: 0%

## CC(C)C[C@@H]1NC(=O)[C@@H]2CCCN2C(=O)[C@H]2CCCN2C(=O)[C@H](CO)NC(=O)[C@H](CO)NC(=O)[C@H](C(C)(C)C)NC(=O)[C@H](CCN)NC(=O)[C@H](Cc2c[nH]c3ccccc23)NC(=O)[C@H](CCN)NC(=O)[C@@H](CCN)NC(=O)[C@H](CCCN)NC(=O)[C@H](CCN)NC(=O)[C@H](CC2CCCCC2)NC(=O)[C@H](C)NC1=O [compound 152] (cyclo(LA[Cha][Dab][Orn][dDab][Dab]W[Dab][Tle]SS[dP]P))
  Hemolysis at 100 μg/ml: 5%

## CC(C)C[C@@H]1NC(=O)[C@@H]2CCCN2C(=O)[C@H]2CCCN2C(=O)[C@H](CO)NC(=O)[C@H](CC(N)=O)NC(=O)[C@H](C(C)(C)C)NC(=O)[C@H](CCN)NC(=O)[C@H](Cc2c[nH]c3ccccc23)NC(=O)[C@H](CCN)NC(=O)[C@@H](CCN)NC(=O)[C@H](CCCN)NC(=O)[C@H](CCN)NC(=O)[C@H](Cc2ccc(O)cc2)NC(=O)[C@H](CC(N)=O)NC1=O [compound 121] (cyclo(LNY[Dab][Orn][dDab][Dab]W[Dab][Tle]NS[dP]P))
  Hemolysis at 100 μg/ml: 0%

## C[C@@H]1NC(=O)[C@H](C(C)(C)C)NC(=O)[C@H](CCN)NC(=O)[C@H](Cc2c[nH]c3ccccc23)NC(=O)[C@H](CCN)NC(=O)[C@H](CCN)NC(=O)[C@H](CCCN)NC(=O)[C@H](CCN)NC(=O)[C@H](CC2CCCCC2)NC(=O)[C@H](CO)NC(=O)[C@H](Cc2c[nH]c3ccccc23)NC(=O)[C@@H]2CCCN2C(=O)[C@H]2CCCN2C(=O)[C@H](CO)NC1=O [Ex. 1] (cyclo(WS[Cha][Dab][Orn][Dab][Dab]W[Dab][Tle]AS[dP]P))
  Hemolysis at 100 μg/ml: 1%

## C[C@@H]1NC(=O)[C@H](Cc2c[nH]c3ccccc23)NC(=O)[C@@H]2CCCN2C(=O)[C@H]2CCCN2C(=O)[C@H](CO)NC(=O)[C@H](C)NC(=O)[C@H](C(C)(C)C)NC(=O)[C@H](CCN)NC(=O)[C@H](Cc2c[nH]c3ccccc23)NC(=O)[C@H](CCN)NC(=O)[C@@H](CCN)NC(=O)[C@H](CCCN)NC(=O)[C@H](CCN)NC(=O)[C@H](C2CCCCC2)NC1=O [compound 3] (cyclo(WA[Chg][Dab][Orn][dDab][Dab]W[Dab][Tle]AS[dP]P))
  Hemolysis at 100 μg/ml: 2.5%

## CCC[C@@H]1NC(=O)[C@@H]2CCCN2C(=O)[C@H]2CCCN2C(=O)[C@H](CO)NC(=O)[C@H](C)NC(=O)[C@H](CC2CCCCC2)NC(=O)[C@H](CCN)NC(=O)[C@H](Cc2c[nH]c3ccccc23)NC(=O)[C@H](CCN)NC(=O)[C@@H](CCN)NC(=O)[C@H](CCCN)NC(=O)[C@H](CCN)NC(=O)[C@H](C(C)(C)C)NC(=O)[C@H](CO)NC1=O [compound 141] (cyclo([Nva]S[Tle][Dab][Orn][dDab][Dab]W[Dab][Cha]AS[dP]P))
  Hemolysis at 100 μg/ml: 8%

## CCC[C@@H]1NC(=O)[C@@H]2CCCN2C(=O)[C@H]2CCCN2C(=O)[C@H](CO)NC(=O)[C@H](C)NC(=O)[C@H](C(C)(C)C)NC(=O)[C@H](CCN)NC(=O)[C@H](Cc2c[nH]c3ccccc23)NC(=O)[C@H](CCN)NC(=O)[C@@H](CCN)NC(=O)[C@H](CCCN)NC(=O)[C@H](CCN)NC(=O)[C@H](Cc2c[nH]c3ccccc23)NC(=O)[C@H](CO)NC1=O [compound 80] (cyclo([Nva]SW[Dab][Orn][dDab][Dab]W[Dab][Tle]AS[dP]P))
  Hemolysis at 100 μg/ml: 1%

## C[C@@H]1NC(=O)[C@H](C(C)(C)C)NC(=O)[C@H](CCN)NC(=O)[C@H](Cc2c[nH]c3ccccc23)NC(=O)[C@H](CCN)NC(=O)[C@@H](CCN)NC(=O)[C@H](CCCN)NC(=O)[C@H](CCN)NC(=O)[C@H](CC2CCCCC2)NC(=O)[C@H](CN)NC(=O)[C@H](Cc2c[nH]c3ccccc23)NC(=O)[C@@H]2Cc3ccc(O)cc3CN2C(=O)[C@H]2CCCN2C(=O)[C@H](CO)NC1=O [compound 61] (cyclo(AS[dP][Tic(7-OH)]W[Dap][Cha][Dab][Orn][dDab][Dab]W[Dab][Tle]))
  Hemolysis at 100 μg/ml: 2%

## CC(C)C[C@@H]1NC(=O)[C@@H]2CCCN2C(=O)[C@H]2CCCN2C(=O)[C@H](CO)NC(=O)[C@H]([C@@H](C)O)NC(=O)[C@H](C(C)(C)C)NC(=O)[C@H](CCN)NC(=O)[C@H](Cc2c[nH]c3ccccc23)NC(=O)[C@H](CCN)NC(=O)[C@@H](CCN)NC(=O)[C@H](CCCN)NC(=O)[C@H](CCN)NC(=O)[C@H](Cc2ccc(O)cc2)NC(=O)[C@H]([C@@H](C)O)NC1=O [compound 122] (cyclo(LTY[Dab][Orn][dDab][Dab]W[Dab][Tle]TS[dP]P))
  Hemolysis at 100 μg/ml: 0%
